Patent US6737383B1, “Herbicidal oxadiazolidines” (priority 1999, dated 2004)

How the values were obtained:
[1] = system: bedstraw; experiment: Test B pre/postemergence bedstraw; assay type: in vivo, Galium aparine; settings: Preemergence, scale of 0 to 10 where 0 is no effect and 10 is complete control
Method in brief: (§1)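 Test chemicals in a non-phytotoxic solvent mixture with surfactant were sprayed preemergence onto planted seeds and postemergence onto plants 2 to 18 cm tall (1- to 4-leaf stage). After twelve to sixteen days in a greenhouse, injury was visually rated against untreated controls from 0 (no effect) to 10 (complete control).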

[2] = system: blackgrass; experiment: Test B pre/postemergence blackgrass; assay type: in vivo, Alopecurus myosuroides
Method in brief: as §1

[3] = system: surinam grass; experiment: Test B pre/postemergence surinam grass; assay type: in vivo, Brachiaria decumbens
Method in brief: as §1

[4] = system: cocklebur; experiment: Test B pre/postemergence cocklebur; assay type: in vivo, Xanthium strumarium
Method in brief: as §1

[5] = system: corn; experiment: Test B pre/postemergence corn; assay type: in vivo, Zea mays
Method in brief: as §1

[6] = system: crabgrass; experiment: Test B pre/postemergence crabgrass; assay type: in vivo, Digitaria sanguinalis
Method in brief: as §1

[7] = system: rape; experiment: Test B pre/postemergence rape; assay type: in vivo, Brassica napus; settings: for Plant response rating, Rape: scale of 0 to 10 where 0 is no effect and 10 is complete control
Method in brief: as §1

[8] = system: soybean; experiment: Test B pre/postemergence soybean; assay type: in vivo, Glycine max; settings: for Plant response rating, Soybean: scale of 0 to 10 where 0 is no effect and 10 is complete control
Method in brief: as §1

[9] = system: sugar beet; experiment: Test B pre/postemergence sugar beet; assay type: in vivo, Beta vulgaris; settings: for Plant response rating, Sugarbeets: scale of 0 to 10 where 0 is no effect and 10 is complete control
Method in brief: as §1

[10] = system: velvetleaf; experiment: Test B pre/postemergence velvetleaf; assay type: in vivo, Abutilon theophrasti; settings: for Plant response rating, Velvetleaf: scale of 0 to 10 where 0 is no effect and 10 is complete control
Method in brief: as §1

[11] = system: wheat; experiment: Test B pre/postemergence wheat; assay type: in vivo, Triticum aestivum; settings: for Plant response rating, Wheat: scale of 0 to 10 where 0 is no effect and 10 is complete control
Method in brief: as §1

[12] = system: wild oat; experiment: Test B pre/postemergence wild oat; assay type: in vivo, Avena fatua; settings: for Plant response rating, Wild oats: scale of 0 to 10 where 0 is no effect and 10 is complete control
Method in brief: as §1

[13] = system: purple nutsedge; experiment: Test B pre/postemergence purple nutsedge; assay type: in vivo, Cyperus rotundus; settings: for Plant response rating, Nutsedge: scale of 0 to 10 where 0 is no effect and 10 is complete control
Method in brief: as §1

[14] = system: rice; experiment: Test B flood test rice; assay type: in vivo, Oryza sativa
Method in brief: (§2)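 Plants were grown to the 2-leaf stage before treatment with test chemical, then held in a greenhouse for twelve to sixteen days. Injury was visually rated against untreated controls on a 0–10 scale, where 0 is no effect and 10 is complete control.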

[15] = system: smallflower flatsedge; experiment: Test B flood test smallflower flatsedge; assay type: in vivo, Cyperus difformis
Method in brief: as §2

[16] = system: duck salad; experiment: Test B flood test duck salad; assay type: in vivo, Heteranthera limosa
Method in brief: as §2

[17] = system: bamyardgrass; experiment: Test B flood test barnyardgrass; assay type: in vivo, Echinochloa crus-galli
Method in brief: as §2

[18] = Postemergence, Rate 250 g/ha, scale 0 to 10
[19] = Postemergence, Rate 500 g/ha, scale of 0 to 10 where 0 is no effect and 10 is complete control
[20] = Preemergence, Rate 62 g/ha, scale of 0 to 10 where 0 is no effect and 10 is complete control
[21] = Preemergence, Rate 125 g/ha, scale of 0 to 10 where 0 is no effect and 10 is complete control
[22] = Preemergence, Rate 250 g/ha, scale 0 to 10, 0 is no effect, 10 is complete control
[23] = Preemergence, Rate 500 g/ha, scale 0 to 10, 0 is no effect, 10 is complete control
[24] = Rate 62 g/ha, Postemergence, scale 0 to 10, 0 no effect, 10 complete control
[25] = Rate 125 g/ha, Postemergence, scale 0 to 10, 0 is no effect, 10 is complete control
[26] = Rate 62 g/ha, flood test species, Pre-emergence, visual evaluation after twelve to sixteen days
[27] = Rate 125 g/ha, under heading Pre-emergence, flood test species, visual evaluation after twelve to sixteen days
[28] = Rate 250 g/ha, Pre-emergence (flood test species), scale 0 to 10, 0 is no effect, 10 is complete control
[29] = Rate 500 g/ha, Pre-emergence, flood test species, scale 0 to 10 (0 no effect, 10 complete control)

`CC(C)N(C(=O)n1oc(=O)n(CC#N)c1=O)c1ccc(Cl)cc1` [Compound 476] was tested, and the “Plant response rating, Bedstraw” value ([1]; Rate 62 g/ha) was 0, the “Plant response rating, Bedstraw” value ([1]; Rate 125 g/ha) was 0 and the “Blackgrass plant response rating” value [2, 18] was 0. The “Blackgrass plant response rating” value [2, 19] was 2, the “Plant response rating, Blackgrass” value [2, 20] was 0 and the “Plant response rating, Blackgrass” value [2, 21] was 0. The “Blackgrass plant response rating” value [2, 22] was 0, the “Blackgrass plant response rating” value [2, 23] was 0 and the “Blackgrass plant response rating” value [2, 24] was 0. For the same molecule, the “Blackgrass plant response rating” value [2, 25] was 0, the “B. signalgrass plant response rating” value ([3]; Postemergence, Rate 250 g/ha, scale 0 to 10, 0 no effect, 10 complete control) was 0 and the “B. signalgrass plant response rating” value [3, 19] was 0. The “Plant response rating, B. signalgrass” value [3, 20] was 0, the “Plant response rating, B. signalgrass” value [3, 21] was 0 and the “B. signalgrass plant response rating” value [3, 22] was 0. For the same molecule, the “B. signalgrass plant response rating” value [3, 23] was 0, the “B. signalgrass plant response rating” value [3, 24] was 0 and the “B. signalgrass plant response rating” value [3, 25] was 0. For the same molecule, the “Cocklebur plant response rating” value [4, 18] was 0, the “Cocklebur plant response rating” value [4, 19] was 0 and the “Plant response rating, Cocklebur” value [4, 20] was 0. For the same molecule, the “Plant response rating, Cocklebur” value [4, 21] was 0, the “Cocklebur plant response rating” value [4, 22] was 0 and the “Cocklebur plant response rating” value [4, 23] was 0. For the same molecule, the “Cocklebur plant response rating” value [4, 24] was 0, the “Cocklebur plant response rating” value [4, 25] was 0 and the “Corn plant response rating” value [5, 18] was 0. For the same molecule, the “Corn plant response rating” value [5, 19] was 0, the “Plant response rating, Corn” value [5, 20] was 0 and the “Plant response rating, Corn” value [5, 21] was 0. The “Corn plant response rating” value [5, 22] was 0, the “Corn plant response rating” value [5, 23] was 0 and the “Corn plant response rating” value [5, 24] was 0. For the same molecule, the “Corn plant response rating” value [5, 25] was 0, the “Crabgrass plant response rating” value [6, 18] was 0 and the “Crabgrass plant response rating” value [6, 19] was 0. For the same molecule, the “Plant response rating, Crabgrass” value [6, 20] was 0, the “Plant response rating, Crabgrass” value [6, 21] was 0 and the “Crabgrass plant response rating” value [6, 22] was 0. For the same molecule, the “Crabgrass plant response rating” value [6, 23] was 0, the “Crabgrass plant response rating” value [6, 24] was 0 and the “Crabgrass plant response rating” value [6, 25] was 0. For the same molecule, the “Rape plant response rating” value [7, 18] was 0, the “Plant response rating, Rape” value ([7]; Preemergence, Rate 62 g/ha) was 0 and the “Plant response rating, Rape” value ([7]; Preemergence, Rate 125 g/ha) was 0. For the same molecule, the “Rape plant response rating” value [7, 22] was 0, the “Rape plant response rating” value [7, 23] was 0 and the “Rape plant response rating” value [7, 24] was 0. For the same molecule, the “Rape plant response rating” value [7, 25] was 0, the “Soybean plant response rating” value [8, 18] was 2 and the “Plant response rating, Soybean” value ([8]; Preemergence, Rate 62 g/ha) was 0. The “Plant response rating, Soybean” value ([8]; Preemergence, Rate 125 g/ha) was 0, the “Soybean plant response rating” value [8, 22] was 0 and the “Soybean plant response rating” value [8, 23] was 0. For the same molecule, the “Soybean plant response rating” value [8, 24] was 0, the “Soybean plant response rating” value [8, 25] was 1 and the “Sugarbeets plant response rating” value [9, 18] was 0. For the same molecule, the “Plant response rating, Sugarbeets” value ([9]; Preemergence, Rate 62 g/ha) was 0, the “Plant response rating, Sugarbeets” value ([9]; Preemergence, Rate 125 g/ha) was 0 and the “Sugarbeets plant response rating” value [9, 22] was 0. The “Sugarbeets plant response rating” value [9, 23] was 0, the “Sugarbeets plant response rating” value [9, 24] was 0 and the “Sugarbeets plant response rating” value [9, 25] was 0. The “Velvetleaf plant response rating” value [10, 18] was 2, the “Plant response rating, Velvetleaf” value ([10]; Preemergence, Rate 62 g/ha) was 0 and the “Plant response rating, Velvetleaf” value ([10]; Preemergence, Rate 125 g/ha) was 0. The “Velvetleaf plant response rating” value [10, 22] was 0, the “Velvetleaf plant response rating” value [10, 23] was 0 and the “Velvetleaf plant response rating” value [10, 24] was 0. The “Velvetleaf plant response rating” value [10, 25] was 1, the “Wheat plant response rating” value [11, 18] was 0 and the “Plant response rating, Wheat” value ([11]; Preemergence, Rate 62 g/ha) was 0. For the same molecule, the “Plant response rating, Wheat” value ([11]; Preemergence, Rate 125 g/ha) was 0, the “Wheat plant response rating” value [11, 22] was 0 and the “Wheat plant response rating” value [11, 23] was 0. The “Wheat plant response rating” value [11, 24] was 0, the “Wheat plant response rating” value [11, 25] was 0 and the “Wild oats plant response rating” value [12, 18] was 0. For the same molecule, the “Plant response rating, Wild oats” value ([12]; Preemergence, Rate 62 g/ha) was 0, the “Plant response rating, Wild oats” value ([12]; Preemergence, Rate 125 g/ha) was 0 and the “Wild oats plant response rating” value [12, 22] was 0. For the same molecule, the “Wild oats plant response rating” value [12, 23] was 0, the “Wild oats plant response rating” value [12, 24] was 0 and the “Wild oats plant response rating” value [12, 25] was 0. For the same molecule, the “Nutsedge plant response rating” value [13, 18] was 0, the “Plant response rating, Nutsedge” value ([13]; Preemergence, Rate 62 g/ha) was 0 and the “Plant response rating, Nutsedge” value ([13]; Preemergence, Rate 125 g/ha) was 0. The “Nutsedge plant response rating” value [13, 22] was 0, the “Nutsedge plant response rating” value [13, 23] was 0 and the “Nutsedge plant response rating” value [13, 24] was 0. The “Nutsedge plant response rating” value [13, 25] was 0, the “Plant response rating, Rice (0 to 10 scale, 0 is no effect, 10 is complete control)” value [14, 26] was 0 and the “Rice plant response rating (0 to 10 scale, 0 is no effect, 10 is complete control)” value [14, 27] was 0. The “Rice plant response rating” value [14, 28] was 0, the “Rice plant response rating” value [14, 29] was 0 and the “Plant response rating, S. Flatsedge (0 to 10 scale, 0 is no effect, 10 is complete control)” value [15, 26] was 0. The “S. Flatsedge plant response rating (0 to 10 scale, 0 is no effect, 10 is complete control)” value [15, 27] was 0, the “S. Flatsedge plant response rating” value [15, 28] was 0 and the “S. Flatsedge plant response rating” value [15, 29] was 0. For the same molecule, the “Plant response rating, Ducksalad (0 to 10 scale, 0 is no effect, 10 is complete control)” value [16, 26] was 0, the “Ducksalad plant response rating (0 to 10 scale, 0 is no effect, 10 is complete control)” value [16, 27] was 0 and the “Ducksalad plant response rating” value [16, 28] was 0. For the same molecule, the “Ducksalad plant response rating” value [16, 29] was 0, the “Plant response rating, Barnyardgrass (0 to 10 scale, 0 is no effect, 10 is complete control)” value [17, 26] was 0 and the “Barnyardgrass plant response rating (0 to 10 scale, 0 is no effect, 10 is complete control)” value [17, 27] was 0. The “Barnyardgrass plant response rating” value [17, 28] was 0 and the “Barnyardgrass plant response rating” value [17, 29] was 0.
